Assay results as given in the NIST ThermoML archive (doi:10.1016/j.fluid.2018.10.006).
Values joined by “and” are separate entries in the source; they are usually repeats but may differ in a detail not shown here. Equal entries are not always repeated.

Details: Fluid (supercritical or subcritical phases), Coaxial cylinder method

CCCCCC [hexane]
thermal conductivity
Details | 510.36 K | 511.55 K
900 kPa | – | 0.03854 W/m/K
1000 kPa | – | 0.03823 W/m/K
1100 kPa | – | 0.03832 W/m/K
1200 kPa | – | 0.03859 W/m/K
1300 kPa | – | 0.03877 W/m/K
1400 kPa | – | 0.03895 W/m/K
1500 kPa | – | 0.03914 W/m/K
1600 kPa | – | 0.03932 W/m/K
1700 kPa | – | 0.0397 W/m/K
1800 kPa | – | 0.04008 W/m/K
1900 kPa | – | 0.04047 W/m/K
2000 kPa | – | 0.04087 W/m/K
2100 kPa | – | 0.04127 W/m/K
2200 kPa | – | 0.0419 W/m/K
2300 kPa | – | 0.04254 W/m/K
2400 kPa | – | 0.04342 W/m/K
2462 kPa | – | 0.04388 W/m/K
2466 kPa | – | 0.04388 W/m/K
2500 kPa | – | 0.04434 W/m/K
2600 kPa | – | 0.0453 W/m/K
2700 kPa | – | 0.04656 W/m/K
2800 kPa | – | 0.04846 W/m/K
2900 kPa | – | 0.05075 W/m/K
2973 kPa | – | 0.05292 W/m/K
2988 kPa | – | 0.05356 W/m/K
3050 kPa | – | 0.05558 W/m/K
3065 kPa | – | 0.05634 W/m/K
3084 kPa | – | 0.05785 W/m/K
3096 kPa | – | 0.05908 W/m/K
3103 kPa | – | 0.05968 W/m/K
3110 kPa | – | 0.06064 W/m/K
3116 kPa | – | 0.06128 W/m/K
3130 kPa | – | 0.06341 W/m/K
3140 kPa | – | 0.06508 W/m/K
3145 kPa | – | 0.06587 W/m/K
3150 kPa | – | 0.06678 W/m/K
3155 kPa | – | 0.06787 W/m/K
3160 kPa | – | 0.06879 W/m/K
3165 kPa | – | 0.0699 W/m/K
3168 kPa | – | 0.07058 W/m/K
3170 kPa | – | 0.07104 W/m/K
3173 kPa | – | 0.0718 W/m/K
3175 kPa | – | 0.07228 W/m/K
3180 kPa | – | 0.07336 W/m/K
3183 kPa | – | 0.07404 W/m/K
3185 kPa | – | 0.07447 W/m/K
3187 kPa | – | 0.07504 W/m/K
3190 kPa | – | 0.07571 W/m/K
3192 kPa | – | 0.07616 W/m/K
3193 kPa | – | 0.07629 W/m/K
3195 kPa | – | 0.07668 W/m/K
3200 kPa | – | 0.07761 W/m/K
3205 kPa | – | 0.07821 W/m/K
3212 kPa | – | 0.07869 W/m/K
3220 kPa | – | 0.07869 W/m/K
3225 kPa | – | 0.07855 W/m/K
3230 kPa | 0.07155 W/m/K | 0.07767 W/m/K
3232 kPa | 0.07138 W/m/K | –
3234 kPa | 0.07128 W/m/K | –
3235 kPa | – | 0.07701 W/m/K
3236 kPa | 0.07122 W/m/K | –
3238 kPa | 0.07122 W/m/K | –
3240 kPa | – | 0.07636 W/m/K
3242 kPa | 0.07105 W/m/K | –
3245 kPa | 0.07105 W/m/K | 0.07571 W/m/K
3248 kPa | 0.07105 W/m/K | –
3250 kPa | 0.07072 W/m/K | 0.07508 W/m/K
3252 kPa | 0.07072 W/m/K | –
3254 kPa | 0.07072 W/m/K | –
3255 kPa | – | 0.07386 W/m/K
3256 kPa | 0.07039 W/m/K | –
3258 kPa | 0.07039 W/m/K | –
3260 kPa | 0.07039 W/m/K | 0.07266 W/m/K
3265 kPa | 0.0704 W/m/K | 0.07151 W/m/K
3270 kPa | 0.07008 W/m/K | 0.07151 W/m/K
3275 kPa | – | 0.07209 W/m/K
3280 kPa | 0.06975 W/m/K | 0.07209 W/m/K
3285 kPa | – | 0.07209 W/m/K
3290 kPa | 0.0696 W/m/K | 0.07267 W/m/K
3295 kPa | – | 0.07267 W/m/K
3300 kPa | 0.06944 W/m/K | 0.07151 W/m/K
3305 kPa | – | 0.07151 W/m/K
3310 kPa | 0.06944 W/m/K | 0.07151 W/m/K
3315 kPa | – | 0.07095 W/m/K
3320 kPa | 0.06912 W/m/K | –
3325 kPa | – | 0.07095 W/m/K
3330 kPa | – | 0.07095 W/m/K
3335 kPa | – | 0.07144 W/m/K
3340 kPa | 0.06881 W/m/K | 0.07144 W/m/K
3345 kPa | – | 0.07144 W/m/K
3350 kPa | 0.0685 W/m/K | 0.07144 W/m/K
3360 kPa | 0.0685 W/m/K | 0.07088 W/m/K
3365 kPa | – | 0.07088 W/m/K
3370 kPa | 0.0685 W/m/K | 0.07033 W/m/K
3375 kPa | – | 0.07033 W/m/K
3380 kPa | 0.0685 W/m/K | –
3385 kPa | – | 0.07033 W/m/K
3392 kPa | 0.06834 W/m/K | –
3395 kPa | – | 0.07033 W/m/K
3400 kPa | – | 0.07033 W/m/K
3410 kPa | – | 0.07088 W/m/K
3450 kPa | 0.06819 W/m/K | 0.07081 W/m/K
3455 kPa | – | 0.07081 W/m/K
3460 kPa | – | 0.07062 W/m/K and 0.07064 W/m/K
3470 kPa | – | 0.07062 W/m/K
3480 kPa | – | 0.07051 W/m/K
3490 kPa | – | 0.07054 W/m/K
3500 kPa | 0.0685 W/m/K | 0.07026 W/m/K
3520 kPa | 0.0686 W/m/K | –
3540 kPa | 0.0686 W/m/K | –
3550 kPa | – | 0.0701 W/m/K
3560 kPa | 0.0686 W/m/K | –
3580 kPa | 0.0686 W/m/K | –
3600 kPa | 0.06851 W/m/K | 0.07 W/m/K
3620 kPa | 0.06851 W/m/K | –
3640 kPa | 0.06854 W/m/K | –
3650 kPa | 0.06857 W/m/K | 0.06992 W/m/K
3670 kPa | 0.0686 W/m/K | –
3680 kPa | 0.06861 W/m/K | –
3700 kPa | 0.06864 W/m/K | 0.06992 W/m/K
3720 kPa | 0.06873 W/m/K | –
3740 kPa | 0.06883 W/m/K | –
3750 kPa | 0.06886 W/m/K | 0.06969 W/m/K
3800 kPa | 0.06913 W/m/K | 0.06964 W/m/K
3810 kPa | 0.06917 W/m/K | –
3820 kPa | 0.06922 W/m/K | –
3830 kPa | 0.06922 W/m/K | –
3840 kPa | 0.06919 W/m/K | –
3850 kPa | – | 0.06975 W/m/K
3860 kPa | 0.06928 W/m/K | –
3900 kPa | – | 0.06992 W/m/K
3950 kPa | – | 0.06992 W/m/K
3970 kPa | 0.06973 W/m/K | –
3980 kPa | 0.06964 W/m/K | –
4000 kPa | – | 0.06992 W/m/K
4010 kPa | 0.06977 W/m/K | –
4100 kPa | – | 0.07009 W/m/K
4150 kPa | – | 0.07009 W/m/K
4300 kPa | – | 0.0702 W/m/K
4400 kPa | – | 0.07048 W/m/K
4500 kPa | – | 0.07048 W/m/K
4600 kPa | – | 0.07077 W/m/K
4700 kPa | – | 0.07105 W/m/K
4800 kPa | – | 0.07105 W/m/K
